Laboratory results as given in patent publication US20250171460A1, “INDUCERS OF KLF2 AND METHODS OF USE THEREOF” (Riparian Pharmaceuticals, Inc., priority 2022, published 2025).

The compounds below were run on primary human endothelial cells expressing luciferase under the control of the KLF2 promoter (assay: KLF2 Induction Cell Based Bioassay (luciferase reporter)). Details: Homo sapiens, Endothelial cell, 24 h, KLF2 promoter luciferase, 24 hours, 11-point concentration response; read-out: Activity Range (EC50).
Source text: In endothelial cell culture media, a stock of the highest working concentration was made at no more than 1% DMSO vehicle. The working stock was then serially diluted 1:2 to make an 11-point concentration response curve. Included in the 96-well plate were 2 reference compounds with known potencies. A DMSO column was included in the 96-well plate at the highest percent vehicle of the working stocks. The 96-well cell culture plate of primary human endothelial cells expressing luciferase under the control of the KLF2 promoter was dosed with 200 μL per well of the dilution series as well as the DMSO control column. The assay plate was incubated at 37° C. for 24 hours. The supernatant was collected at 24 hours.
20 μL of the supernatant was then placed in a 384-well plate with optical duplicates. The corners of the plate received 20 μL of the Gaussia Luciferase Enzyme positive control, as well as 20 μL of the 50 μM Coelenterizine substrate. The plate read is then calibrated using the control, and read using a Molecular Devices SpectraMax iD5, providing luminescence in relative light units (RLU). The plate reader injected 20 μL of the 50 μM Coelenterizine substrate immediately before taking the RLU measurement for each well.
The sample signals were then normalized to the average signal of the DMSO column, as well as to the maximum signal of one of the reference compounds, as shown in the equations below: […]
The EC50 of each compound is then defined as when the concentration response curve passes 0.5.

SMILES | EC50 [nM]
COCCN1C(=O)c2oc3cc(C(=O)NC4(C)COC4)ccc3c2OCC1(C)C(=O)NCc1c(F)cccc1OC (racemic) [Example 81] | 51 to 500
COc1cccc(F)c1CNC(=O)C1(C)COc2c(oc3ccc(Cl)cc23)C(=O)N1CC(=O)N(C)C (racemic) [Example 106, 9-chloro-4-(2-(dimethylamino)-2-oxoethyl)-N-(2-fluoro-6-methoxybenzyl)-3-methyl-5-oxo-2,3,4,5-tetrahydrobenzofuro[2,3-f][1,4]oxazepine-3-carboxamide] | 51 to 500
COc1cccc(F)c1CNC(=O)[C@@]1(C)COc2c(oc3ccc(Cl)cc23)C(=O)N1CC(=O)N(C)C (single isomer, unassigned) [Example 107] | 51 to 500
COCCN1C(=O)c2oc3ccccc3c2OCC1(C)C(=O)NCc1c(F)cc(Cl)cc1OC (stereo not drawn) [Example 16] | 501 to 5000
COCCN1C(=O)c2oc3ccccc3c2OCC1(C)C(=O)NCc1c(OC)ccc(F)c1Cl (stereo not drawn) [Example 17] | 501 to 5000
COCCN1C(=O)c2oc3ccccc3c2OCC1(C)C(=O)NCc1cc2ncccc2cc1OC (stereo not drawn) [Example 18] | 501 to 5000
COCCN1C(=O)c2oc3ccccc3c2OCC1(C)C(=O)NCc1c(OC)ccc2cnccc12 (stereo not drawn) [Example 19] | 501 to 5000
COCCN1C(=O)c2oc3ccccc3c2OCC1(C)C(=O)NCc1c(OC)ccc2cccnc12 (stereo not drawn) [Example 20] | 501 to 5000
COCCN1C(=O)c2oc3ccccc3c2OCC1(C)C(=O)NCc1c(OC)ccc(F)c1F (stereo not drawn) [Example 21] | 501 to 5000
COCCN1C(=O)c2oc3ccccc3c2OCC1(C)C(=O)NCc1c(F)cc(F)cc1OC (stereo not drawn) [Example 22] | 501 to 5000
COCCN1C(=O)c2oc3ccccc3c2OCC1(C)C(=O)NCc1c(OC)cccc1C(N)=O (stereo not drawn) [Example 26] | 501 to 5000
COCCN1C(=O)c2oc3ccccc3c2OCC1(C)C(=O)NCc1c(OC)cccc1C(=O)OC (stereo not drawn) [Example 27] | 501 to 5000
COCCN1C(=O)c2oc3ccccc3c2OCC1(C)C(=O)NCc1c(C#N)cccc1OC (stereo not drawn) [Example 28] | 501 to 5000
COCCN1C(=O)c2oc3ccccc3c2OCC1(C)C(=O)NCc1cc(Cl)c(F)cc1OC (stereo not drawn) [Example 29] | 501 to 5000
COCCN1C(=O)c2oc3ccccc3c2OCC1(C)C(=O)NCc1c(OC)ccc2ccncc12 (stereo not drawn) [Example 30] | 501 to 5000
COCCN1C(=O)c2oc3ccccc3c2OCC1(C)C(=O)NCc1c(OC)ccc2ccccc12 (stereo not drawn) [Example 32] | 501 to 5000
COCCN1C(=O)c2oc3ccccc3c2OCC1(C)C(=O)NCc1c(OC)cccc1OC (stereo not drawn) [Example 33] | 501 to 5000
COCCN1C(=O)c2oc3ccccc3c2OCC1(C)C(=O)NCc1ccc2ccccc2c1OC (stereo not drawn) [Example 41] | 501 to 5000
COCCN1C(=O)c2oc3ccccc3c2OCC1(C)C(=O)NCc1c(Cl)cc(Cl)cc1OC (stereo not drawn) [Example 44] | 501 to 5000

SMILES | EC50 [nM]
COCCN1C(=O)c2oc3ccccc3c2OCC1(C)C(=O)NCc1cc(F)c(Cl)cc1OC (stereo not drawn) [Example 45] | 501 to 5000
COCCN1C(=O)c2oc3ccccc3c2OCC1(C)C(=O)NCc1c(OC)ccc(Cl)c1F (stereo not drawn) [Example 46] | 501 to 5000
COCCN1C(=O)c2oc3ccccc3c2OCC1(C)C(=O)NCc1ncccc1OC (stereo not drawn) [Example 47] | 501 to 5000
COCCN1C(=O)c2oc3ccccc3c2OCC1(C)C(=O)NCc1c(Cl)cc(F)cc1OC (stereo not drawn) [Example 48] | 501 to 5000
COCCN1C(=O)c2oc3cc(C(=O)NC4CCC4)ccc3c2OC[C@@]1(C)C(=O)NCc1ccccc1OC [Example 49, (S)—N8-cyclobutyl-N3-(2-methoxybenzyl)-4-(2-methoxyethyl)-3-methyl-5-oxo-2,3,4,5-tetrahydrobenzofuro[2,3-f][1,4]oxazepine-3,8-dicarboxamide] | 501 to 5000
COCCN1C(=O)c2oc3cc(C(=O)NC4CCC4)ccc3c2OC[C@]1(C)C(=O)NCc1ccccc1OC [Example 50, (R)—N8-cyclobutyl-N3-(2-methoxybenzyl)-4-(2-methoxyethyl)-3-methyl-5-oxo-2,3,4,5-tetrahydrobenzofuro[2,3-f][1,4]oxazepine-3,8-dicarboxamide] | 51 to 500
COc1cccnc1CNC(=O)C1(C)COc2c(oc3cc(C(=O)NC4(C)COC4)ccc23)C(=O)N1CC1CC1 (stereo not drawn) [Example 52] | 51 to 500
COc1cccnc1CNC(=O)C1(C)COc2c(oc3cc(C(=O)NC4CCC4)ccc23)C(=O)N1CC1CC1 (stereo not drawn) [Example 53] | 51 to 500
COc1cccnc1CNC(=O)C1(C)COc2c(oc3cc(C(=O)NC4CCC4)ccc23)C(=O)N1[C@H]1C[C@@H](OC)C1 (stereo partly drawn) [Example 54] | 51 to 500
COc1cccc(C#N)c1CNC(=O)C1(C)COc2c(oc3cc(C(=O)NC4(C)COC4)ccc23)C(=O)N1[C@H]1C[C@@H](OC)C1 (stereo partly drawn) [Example 55] | 51 to 500
COc1cccc(C#N)c1CNC(=O)C1(C)COc2c(oc3cc(C(=O)NC4CCC4)ccc23)C(=O)N1[C@H]1C[C@@H](OC)C1 (stereo partly drawn) [Example 56] | 51 to 500
COc1ccc(F)c(F)c1CNC(=O)C1(C)COc2c(oc3cc(C(=O)NC4CCC4)ccc23)C(=O)N1CC1CC1 (stereo not drawn) [Example 58] | 51 to 500
COc1cc(F)ccc1CNC(=O)C1(C)COc2c(oc3cc(C(=O)NC4(C)COC4)ccc23)C(=O)N1CC1CC1 (stereo not drawn) [Example 59] | 51 to 500
COCCN1C(=O)c2oc3cc(C(=O)NC4CCC4)ccc3c2OCC1(C)C(=O)NCc1c(OC)ccc(F)c1F (stereo not drawn) [Example 61] | 51 to 500
COCCN1C(=O)c2oc3cc(C(=O)NC4(C)COC4)ccc3c2OCC1(C)C(=O)NCc1c(C#N)cccc1OC (stereo not drawn) [Example 62] | 51 to 500
COCCN1C(=O)c2oc3cc(C(=O)NC4(C)COC4)ccc3c2OCC1(C)C(=O)NCc1c(OC)ccc(F)c1F (stereo not drawn) [Example 63] | 51 to 500
COCCN1C(=O)c2oc3cc(C(=O)NC4(C)COC4)ccc3c2OCC1(C)C(=O)NCc1c(Cl)cccc1OC (stereo not drawn) [Example 64] | 51 to 500
COc1cccc(C#N)c1CNC(=O)C1(C)COc2c(oc3cc(C(=O)NC4(C)COC4)ccc23)C(=O)N1CC1CC1 (stereo not drawn) [Example 65] | 51 to 500

Next, values leading:

EC50 [nM] | SMILES
501 to 5000 | CC=C1CC(N2C(=O)c3oc4ccccc4c3OCC2(C)C(=O)NCc2ccccc2OC)C1 (racemic) [Example 15]
501 to 5000 | COc1ccccc1CNC(=O)C1(C)COc2c(oc3ccccc23)C(=O)N1CC1(F)CCC1 (stereo not drawn) [Example 2]
51 to 500 | COc1ccccc1CNC(=O)C1(C)COc2c(oc3ccccc23)C(=O)N1CC(C)(C)OC (stereo not drawn) [Example 3]
501 to 5000 | CCOC(=O)CN1C(=O)c2oc3ccccc3c2OCC1(C)C(=O)NCc1ccccc1OC (stereo not drawn) [Example 4]
501 to 5000 | C#CCCN1C(=O)c2oc3ccccc3c2OC[C@]1(C)C(=O)NCc1ccccc1OC [Example 6]
501 to 5000 | C/C=C/CN1C(=O)c2oc3ccccc3c2OCC1(C)C(=O)NCc1ccccc1OC (stereo not drawn) [Example 9]
501 to 5000 | COc1ccccc1CNC(=O)C1(C)COc2c(oc3ccccc23)C(=O)N1CC1(OC)CCC1 (stereo not drawn) [Example 10]
501 to 5000 | COc1ccccc1CNC(=O)C1(C)COc2c(oc3ccccc23)C(=O)N1CC1(O)CCC1 (stereo not drawn) [Example 11]
501 to 5000 | C=CCN1C(=O)c2oc3ccccc3c2OCC1(C)C(=O)NCc1ccccc1OC (stereo not drawn) [Example 12]
501 to 5000 | COc1ccccc1CNC(=O)C1(C)COc2c(oc3ccccc23)C(=O)N1C1CCC1 (stereo not drawn) [Example 13]
51 to 500 | COc1ccccc1CNC(=O)C1(C)COc2c(oc3ccccc23)C(=O)N1C1CC2(CC2)C1 (stereo not drawn) [Example 14]
501 to 5000 | COCCN1C(=O)c2oc3ccccc3c2OCC1(C)C(=O)NCc1cc(Cl)ccc1OC (stereo not drawn) [Example 23]
501 to 5000 | COCCN1C(=O)c2oc3ccccc3c2OCC1(C)C(=O)NCc1c(Cl)cccc1OC (stereo not drawn) [Example 24]
501 to 5000 | COCCN1C(=O)c2oc3ccccc3c2OCC1(C)C(=O)NCc1ccc(Cl)cc1OC (stereo not drawn) [Example 25]
501 to 5000 | COCCN1C(=O)c2oc3ccccc3c2OCC1(C)C(=O)NCc1cc2ccccc2cc1OC (stereo not drawn) [Example 31]
501 to 5000 | COCCN1C(=O)c2oc3ccccc3c2OCC1(C)C(=O)NCc1cc(C)ccc1OC (stereo not drawn) [Example 34]
501 to 5000 | COCCN1C(=O)c2oc3ccccc3c2OCC1(C)C(=O)NCc1cc(OC)ccc1OC (stereo not drawn) [Example 35]
501 to 5000 | [2H]C([2H])([2H])Oc1ccccc1CNC(=O)C1(C)COc2c(oc3ccccc23)C(=O)N1CCOC (stereo not drawn) [Example 36]
501 to 5000 | COCCN1C(=O)c2oc3ccccc3c2OCC1(C)C(=O)NCc1c(F)cccc1OC (stereo not drawn) [Example 37]
501 to 5000 | COCCN1C(=O)c2oc3ccccc3c2OCC1(C)C(=O)NCc1cc(F)ccc1OC (stereo not drawn) [Example 38]
501 to 5000 | COCCN1C(=O)c2oc3ccccc3c2OCC1(C)C(=O)NCc1ccc(F)cc1OC (stereo not drawn) [Example 39]
501 to 5000 | COCCN1C(=O)c2oc3ccccc3c2OC[C@]1(C)C(=O)NCc1ccccc1OC [Example 40]
501 to 5000 | COCCN1C(=O)c2oc3ccccc3c2OCC1(C)C(=O)NCc1ccc(C)cc1OC (stereo not drawn) [Example 43]

Same assay, conditions: Homo sapiens, Endothelial cell, Bioactivity of stereoisomers: R isomer; read-out: Bioactivity Bucket, R

SMILES | EC50 [nM]
COc1cccc(F)c1CNC(=O)[C@@]1(C)COc2c(oc3ccc(Cl)cc23)C(=O)N1CC(=O)N(C)C (single isomer, unassigned) [Example 107] | 51 to 500
COCCN1C(=O)c2oc3cc(C(=O)NC4CCC4)ccc3c2OC[C@]1(C)C(=O)NCc1ccccc1OC [Example 50, (R)—N8-cyclobutyl-N3-(2-methoxybenzyl)-4-(2-methoxyethyl)-3-methyl-5-oxo-2,3,4,5-tetrahydrobenzofuro[2,3-f][1,4]oxazepine-3,8-dicarboxamide] | ≤ 50

More lines, now with the values ahead:

EC50 [nM] | SMILES
501 to 5000 | C#CCCN1C(=O)c2oc3ccccc3c2OC[C@]1(C)C(=O)NCc1ccccc1OC [Example 6]
501 to 5000 | COCCN1C(=O)c2oc3ccccc3c2OC[C@]1(C)C(=O)NCc1ccccc1OC [Example 40]

Same assay, conditions: Homo sapiens, Endothelial cell, Bioactivity of stereoisomers: S isomer; read-out: Bioactivity Bucket, S

EC50 [nM] | SMILES
501 to 5000 | COCCN1C(=O)c2oc3cc(C(=O)NC4CCC4)ccc3c2OC[C@@]1(C)C(=O)NCc1ccccc1OC [Example 49, (S)—N8-cyclobutyl-N3-(2-methoxybenzyl)-4-(2-methoxyethyl)-3-methyl-5-oxo-2,3,4,5-tetrahydrobenzofuro[2,3-f][1,4]oxazepine-3,8-dicarboxamide]

Same assay, conditions: Homo sapiens, Endothelial cell, Bioactivity of stereoisomers: racemate; read-out: Bioactivity Bucket, Racemate

SMILES | EC50 [nM]
COCCN1C(=O)c2oc3cc(C(=O)NC4(C)COC4)ccc3c2OCC1(C)C(=O)NCc1c(F)cccc1OC (racemic) [Example 81] | 51 to 500
COc1cccc(F)c1CNC(=O)C1(C)COc2c(oc3ccc(Cl)cc23)C(=O)N1CC(=O)N(C)C (racemic) [Example 106, 9-chloro-4-(2-(dimethylamino)-2-oxoethyl)-N-(2-fluoro-6-methoxybenzyl)-3-methyl-5-oxo-2,3,4,5-tetrahydrobenzofuro[2,3-f][1,4]oxazepine-3-carboxamide] | 51 to 500

More lines, now with the values ahead:

EC50 [nM] | SMILES
501 to 5000 | C#CCCN1C(=O)c2oc3ccccc3c2OCC1(C)C(=O)NCc1ccccc1OC (racemic) [Example 5]
501 to 5000 | CC=C1CC(N2C(=O)c3oc4ccccc4c3OCC2(C)C(=O)NCc2ccccc2OC)C1 (racemic) [Example 15]
